Measured values taken from PMC3578762, “Mutational Analysis of the High-Affinity Zinc Binding Site Validates a Refined Human Dopamine Transporter Homology Model” (PLoS Computational Biology, 2013).
Values joined by “and” are separate entries in the source; they are usually repeats but may differ in a detail not shown here. Equal values may be shown once. Read-outs that look alike come from different tables or passages of the source.

Legend:
DAT (wild-type) = molecular target: T1, DAT (wild-type) (Homo sapiens, UniProt Q01959); assay: Zinc inhibition of [3H]MPP+ uptake in HEK293 cells transiently expressing wild-type DAT; format: cell-based; conditions: for IC50: [3H]MPP+ uptake inhibition, HEK293 cells, bi-phasic fit, mean ± S.E.
T1 construct: expressed in transfected cells; host or cells: HEK293 (transient, calcium phosphate)
T1 sequence (Q01959 whole entry): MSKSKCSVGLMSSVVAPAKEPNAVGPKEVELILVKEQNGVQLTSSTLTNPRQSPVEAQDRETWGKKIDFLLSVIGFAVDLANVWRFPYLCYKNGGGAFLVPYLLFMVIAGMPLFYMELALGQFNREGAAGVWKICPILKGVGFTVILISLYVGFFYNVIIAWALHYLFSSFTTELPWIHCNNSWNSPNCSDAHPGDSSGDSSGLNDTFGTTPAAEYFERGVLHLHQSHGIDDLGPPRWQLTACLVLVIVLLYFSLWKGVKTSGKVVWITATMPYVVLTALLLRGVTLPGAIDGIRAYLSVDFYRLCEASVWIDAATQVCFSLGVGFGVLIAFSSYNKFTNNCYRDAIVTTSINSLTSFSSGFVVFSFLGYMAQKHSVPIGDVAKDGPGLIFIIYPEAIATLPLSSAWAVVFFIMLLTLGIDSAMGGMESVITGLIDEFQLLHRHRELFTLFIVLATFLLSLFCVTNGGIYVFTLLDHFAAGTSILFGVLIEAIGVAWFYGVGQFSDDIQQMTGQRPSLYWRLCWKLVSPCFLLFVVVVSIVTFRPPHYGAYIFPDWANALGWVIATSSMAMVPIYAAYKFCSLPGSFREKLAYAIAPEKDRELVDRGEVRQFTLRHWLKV
Procedure: (§1) HEK293 cells were cultured in Dulbecco's modified Eagle's medium (DMEM) with high glucose (4.5 g/liter) and L-glutamine (584 mg/liter), supplemented with 10% fetal calf serum (FCS), 100 units/ml penicillin and 100 µg/ml streptomycin. The cells were maintained at 37°C in a humidified atmosphere of 5% CO2/95% air on standard plastic culture ware. The cells were transiently transfected with 2–10 µg of plasmid DNA as required, using the calcium phosphate precipitation method.
(§2) Cells were seeded at 0.5×10^5 cells/ml into poly-D-lysine coated 48 well plates twenty-four hours after calcium phosphate transfection with either wild-type or mutant DAT. Uptakes were performed as described previously. In brief, the cell medium was aspirated and the cells were washed once with Krebs-HEPES buffer at room temperature. The washed cells were pre-incubated with Krebs-HEPES buffer in the presence of 0–10 mM ZnCl2 for 5 min at room temperature. In the first step of the assay, this buffer was replaced with Krebs-Hepes buffer containing the appropriate ZnCl2 concentration and 0.02 µM [^3H]MPP^+. After three minutes substrate uptake was stopped by exchange of the substrate containing buffer with ice-cold Krebs-Hepes buffer. The cells were lysed in 1% SDS and transferred to scintillation vials. Scintillation cocktail was added and the vials were assayed for [^3H] content by liquid scintillation counting. Non-specific uptake was determined in the presence of 10 µM mazindol.
(§3) Uptake data are given by mean values ± S.E, obtained from n = 6–8 experiments. Total uptake data were corrected for non-specific uptake and expressed as a percentage of 0 mM ZnCl2 for each experiment. IC50 values were calculated for each mutant by performing non-linear regression analysis using PRISM version 4.0 (GraphPad Software, Inc., San Diego, CA).

DAT (D206C) = molecular target: T2, DAT (D206C) (Homo sapiens, UniProt Q01959, D206C); assay: Zinc inhibition of [3H]MPP+ uptake in HEK293 cells transiently expressing DAT-D206C; format: cell-based
T2 construct: expressed in transfected cells; host or cells: HEK293 (transient, calcium phosphate)
T2 sequence (Q01959 whole entry D206C): as the sequence (Q01959 whole entry) above, with D206C counted along it
Procedure: (§4) Wild-type human DAT was generously donated by Marc G. Caron; DAT H193K was a generous gift from Ulrik Gether. Wild-type and mutant DAT were YFP tagged at their N-terminus as described in Egana et al.. Mutagenesis was performed using the Quickchange Lightning Kit by Agilent Technologies. Primers were designed using the “quickchange primer design tool” by Agilent. Primers used were: D206K: (5′-3′): […]; D206C: (5′-3′): […].
as §1
as §2, with “The cells were lysed in 1% SDS and transferred to scintillation vials. Scintillation cocktail was added and the vials were assayed for [^3H] content by liquid scintillation counting.” left out
as §3

DAT (D206K) = molecular target: T3, DAT (D206K) (Homo sapiens, UniProt Q01959, D206K); assay: Zinc inhibition of [3H]MPP+ uptake in HEK293 cells transiently expressing DAT-D206K; format: cell-based; conditions: for IC50: [3H]MPP+ uptake inhibition, HEK293 cells, DAT D206K, mean ± S.E.
T3 construct: expressed in transfected cells; host or cells: HEK293 (transient, calcium phosphate)
T3 sequence (Q01959 whole entry D206K): as the sequence (Q01959 whole entry) above, with D206K counted along it
Procedure: as §4, §1
as §2, with “The cells were lysed in 1% SDS and transferred to scintillation vials. Scintillation cocktail was added and the vials were assayed for [^3H] content by liquid scintillation counting.” left out
as §3

DAT (D206A) = molecular target: T4, DAT (D206A) (Homo sapiens, UniProt Q01959, D206A); assay: Zinc inhibition of [3H]MPP+ uptake in HEK293 cells transiently expressing DAT-D206A; format: cell-based; conditions: [3H]MPP+ uptake inhibition, mean ± S.E.
T4 construct: expressed in transfected cells; host or cells: HEK293 (transient, calcium phosphate)
T4 sequence (Q01959 whole entry D206A): as the sequence (Q01959 whole entry) above, with D206A counted along it
Procedure: as §4
as §1, with “The cells were transiently transfected with 2–10 µg of plasmid DNA as required, using the calcium phosphate precipitation method.” left out
(§5) Cells were seeded at 0.5×10^5 cells/ml into poly-D-lysine coated 48 well plates twenty-four hours after calcium phosphate transfection with either wild-type or mutant DAT. […] Non-specific uptake was determined in the presence of 10 µM mazindol.
as §3

DAT (D206E) = molecular target: T5, DAT (D206E) (Homo sapiens, UniProt Q01959, D206E); assay: Zinc inhibition of [3H]MPP+ uptake in HEK293 cells transiently expressing DAT-D206E; format: cell-based; conditions: [3H]MPP+ uptake inhibition, mean ± S.E.
T5 construct: expressed in transfected cells; host or cells: HEK293 (transient, calcium phosphate)
T5 sequence (Q01959 whole entry D206E): as the sequence (Q01959 whole entry) above, with D206E counted along it
Procedure: as §4
as §1, with “The cells were transiently transfected with 2–10 µg of plasmid DNA as required, using the calcium phosphate precipitation method.” left out
as §5, §3

DAT (H193K) = molecular target: T6, DAT (H193K) (Homo sapiens, UniProt Q01959, H193K); assay: Zinc inhibition of [3H]MPP+ uptake in HEK293 cells transiently expressing DAT-H193K; format: cell-based; conditions: [3H]MPP+ uptake inhibition, homogeneous (mono-phasic) inhibition curve, mean ± S.E., read-out: Low-affinity site: IC50 (Zn^2+)
T6 construct: expressed in transfected cells; host or cells: HEK293 (transient, calcium phosphate)
T6 sequence (Q01959 whole entry H193K): as the sequence (Q01959 whole entry) above, with H193K counted along it
Procedure: as §4
as §1, with “The cells were transiently transfected with 2–10 µg of plasmid DNA as required, using the calcium phosphate precipitation method.” left out
as §5, §3

DAT = system: DAT; parameters: method as in PMID 9687495, PMID 8423763; conditions: synaptosomes and heterologous expression systems; cited from earlier work
[1] = read-out: High-affinity site: IC50 (Zn^2+)
[2] = read-out: Low-affinity site: IC50 (Zn^2+)

Structure (SMILES): [Zn+2] [zinc]
- IC50 (DAT (wild-type); [1]): 1 µM and 0.91 µM
- IC50 (DAT (wild-type); [2]): 798 ± 84 µM
- Reduction of the transport rate of DAT upon zinc binding (DAT (wild-type); zinc bound to high-affinity site): ~50%
- Inhibition of transport upon saturation of the high affinity site (DAT (D206C); DAT-D206C, [3H]MPP+ uptake, HEK293 cells): almost complete inhibition of transport
- Occupancy of the high affinity site predicted (DAT (D206C); DAT-D206C, at 250 µM zinc): 99%
- IC50 (DAT (D206C); [3H]MPP+ uptake inhibition, HEK293 cells, DAT D206C, mean ± S.E., read-out: High-affinity site: IC50 (Zn^2+)): 6.81 ± 1.4 µM
- Reduction of inhibitory potency of zinc on the high-affinity component versus wild-type (DAT (D206K); DAT-D206K versus wild-type DAT): approximately three fold
- IC50 (DAT (D206K); [1]): 2.54 ± 0.8 µM
- IC50 (DAT (D206K); [2]): 682 ± 100 µM
- IC50 (DAT (D206A); [1]): 0.79 ± 0.1 µM
- IC50 (DAT (D206A); [2]): 219 ± 14 µM
- IC50 (DAT (D206E); [1]): 1.22 ± 0.3 µM
- IC50 (DAT (D206E); [2]): 857 ± 76 µM
- IC50 (DAT (H193K)): 102 ± 8 µM
- IC50 of inhibition of dopamine re-uptake (DAT): low µM range
